From ChEMBL document CHEMBL3352029, “Ring fusion strategy for the synthesis of anthra[2,3-d]oxazole-2-thione-5,10-dione homologues as DNA topoisomerase inhibitors and as antitumor agents” (Eur J Med Chem, 2014)
Active and inactive are the calls of the source. No cut-off for these calls is given here.

What was measured:
[1] = Cytotoxicity against human PC3 cells assessed as inhibition of cell growth after 48 hrs by sulforhodamine B assay; type: functional, cell-based; conditions: PC-3, 48 h
[2] = molecular target: T1, DNA topoisomerase 1 (Homo sapiens) (UniProt P11387); test: Inhibition of human recombinant DNA topoisomerase 1 assessed as reduction in relaxation of supercoiled pHOT DNA at 25 to 50 uM incubated for 45 mins by ethidium bromide staining based gel electrophoresis
T1 sequence (whole entry): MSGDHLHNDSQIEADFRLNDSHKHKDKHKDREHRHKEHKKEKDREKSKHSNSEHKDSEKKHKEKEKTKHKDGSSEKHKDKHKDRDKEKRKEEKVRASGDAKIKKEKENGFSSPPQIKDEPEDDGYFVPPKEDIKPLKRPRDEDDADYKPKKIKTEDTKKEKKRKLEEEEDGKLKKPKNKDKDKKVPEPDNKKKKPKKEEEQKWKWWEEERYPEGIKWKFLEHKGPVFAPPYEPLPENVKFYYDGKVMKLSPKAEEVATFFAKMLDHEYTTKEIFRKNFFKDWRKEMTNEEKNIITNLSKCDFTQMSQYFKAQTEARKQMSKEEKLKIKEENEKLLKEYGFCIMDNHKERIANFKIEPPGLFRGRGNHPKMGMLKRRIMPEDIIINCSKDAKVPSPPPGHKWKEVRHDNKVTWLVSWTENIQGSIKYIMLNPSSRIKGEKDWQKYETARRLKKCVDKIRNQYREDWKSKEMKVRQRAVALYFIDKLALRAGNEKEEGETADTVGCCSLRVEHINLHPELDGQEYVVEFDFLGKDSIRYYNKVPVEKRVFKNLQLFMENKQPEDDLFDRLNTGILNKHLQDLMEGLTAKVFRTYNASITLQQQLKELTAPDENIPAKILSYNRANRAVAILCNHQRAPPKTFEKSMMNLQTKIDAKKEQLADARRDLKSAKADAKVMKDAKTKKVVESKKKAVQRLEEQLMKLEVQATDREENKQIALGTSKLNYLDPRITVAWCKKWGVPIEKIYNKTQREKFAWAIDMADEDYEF

inhibition [2]	SMILES	IC50 [1]
–	O=C1c2ccccc2C(=O)c2cc3oc(SCc4ccccc4F)nc3cc21	> 30 µM
–	CCN(CC)CCC(=O)Nc1cc2c(cc1O)C(=O)c1ccccc1C2=O	23.6 µM
–	O=C(CCN1CCCCC1)Nc1cc2c(cc1O)C(=O)c1ccccc1C2=O	> 30 µM
–	O=C1COc2cc3c(cc2N1)C(=O)c1ccccc1C3=O	> 30 µM
–	O=C1c2ccccc2C(=O)c2cc3oc(SCc4ccccc4)nc3cc21	> 30 µM
–	O=C(CCl)Nc1cc2c(cc1O)C(=O)c1ccccc1C2=O	23.4 µM
–	O=C(CCCl)Nc1cc2c(cc1O)C(=O)c1ccccc1C2=O	26.7 µM
–	CCN(CC)CC(=O)Nc1cc2c(cc1O)C(=O)c1ccccc1C2=O	20.2 µM
–	O=C1c2ccccc2C(=O)c2cc3oc(SCCN4CCCCC4)nc3cc21	21.8 µM
Active	O=C1c2ccccc2C(=O)c2cc3oc(SCCCN4CCCCC4)nc3cc21	12.2 µM
–	CCCSc1nc2cc3c(cc2o1)C(=O)c1ccccc1C3=O	> 30 µM
–	O=C1c2ccccc2C(=O)c2cc3oc(SCc4cccc([N+](=O)[O-])c4)nc3cc21	> 30 µM
